In patent US10189785B2, “Heterocyclic compound” (TAKEDA PHARMACEUTICAL COMPANY LIMITED, priority 2015, dated 2019):

How the values were obtained:
[1] = target: T1, SPT (SPT2-expressing membrane fraction: human SPT1, human SPT2 and human ssSPTa) (Homo sapiens, UniProt O15269+O15270); assay: SPT enzyme inhibition test (Test Example 1); assay type: biochemical; conditions: read-out: Rate of inhibition (%) at 1 μM
T1 construct: Full-length human SPT1, human SPT2 and human ssSPTa used; made in house; host or cells: FreeStyle 293 cells (pcDNA3.1 vectors, cotransfection); crude membrane fraction used
T1 sequence (O15269 1-473): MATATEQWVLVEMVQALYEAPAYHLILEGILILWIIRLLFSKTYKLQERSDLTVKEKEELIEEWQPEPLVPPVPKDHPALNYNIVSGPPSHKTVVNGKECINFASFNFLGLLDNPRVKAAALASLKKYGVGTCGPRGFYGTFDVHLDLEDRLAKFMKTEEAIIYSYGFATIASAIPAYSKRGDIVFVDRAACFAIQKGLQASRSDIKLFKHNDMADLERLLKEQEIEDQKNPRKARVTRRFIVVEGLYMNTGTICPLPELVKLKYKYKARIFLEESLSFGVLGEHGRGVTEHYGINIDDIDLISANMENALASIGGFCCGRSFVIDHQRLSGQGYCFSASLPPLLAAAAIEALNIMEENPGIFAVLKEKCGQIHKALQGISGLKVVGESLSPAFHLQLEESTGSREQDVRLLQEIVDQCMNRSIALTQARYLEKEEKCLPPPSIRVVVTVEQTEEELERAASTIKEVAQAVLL
T1 sequence (O15270 1-562): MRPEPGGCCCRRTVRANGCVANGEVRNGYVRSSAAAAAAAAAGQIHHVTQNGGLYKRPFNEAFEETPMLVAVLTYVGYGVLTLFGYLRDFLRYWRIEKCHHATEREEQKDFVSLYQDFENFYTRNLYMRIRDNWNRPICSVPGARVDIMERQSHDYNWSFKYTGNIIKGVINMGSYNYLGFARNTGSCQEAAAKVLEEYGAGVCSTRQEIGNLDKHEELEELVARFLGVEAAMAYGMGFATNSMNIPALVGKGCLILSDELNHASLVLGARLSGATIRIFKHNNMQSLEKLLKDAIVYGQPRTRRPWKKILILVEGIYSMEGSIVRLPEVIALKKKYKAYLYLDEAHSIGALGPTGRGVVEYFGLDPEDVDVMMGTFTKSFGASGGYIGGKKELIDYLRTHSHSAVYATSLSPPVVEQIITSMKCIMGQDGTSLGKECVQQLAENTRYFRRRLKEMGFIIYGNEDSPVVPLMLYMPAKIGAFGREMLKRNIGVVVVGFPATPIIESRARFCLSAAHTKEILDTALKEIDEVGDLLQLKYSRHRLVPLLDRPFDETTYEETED
T1 sequence (Q969W0 1-71 partner): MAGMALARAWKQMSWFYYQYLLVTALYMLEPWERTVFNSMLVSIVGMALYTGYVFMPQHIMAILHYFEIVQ
Experimental: After culture for 3 days, the cells were recovered and frozen at −80° C. to obtain expressing cells. The frozen cells were suspended in a 50 mM Hepes buffer (pH 7.5) containing 250 mM sucrose, 5 mM ethylenediaminetetraacetic acid (EDTA), 5 mM dithiothreitol (DTT) and Complete, EDTA-free (Roche Applied Science, Penzberg, Upper Bavaria, Germany). The cells were disrupted (on ice, 20,000 rpm, 20 sec×2) using POLYTORON (Central Scientific Commerce, Inc.). After centrifugation at 2000 rpm (850×g) for 10 minutes, the supernatant was recovered. Subsequently, the supernatant was centrifuged at 40,000 rpm (186,010×g) for 60 minutes, and the supernatant was discarded. The pellets were suspended in a 50 mM Hepes buffer (pH 7.5) containing 5 mM EDTA, 5 mM DTT and Complete, EDTA-free, passed through a 40-μm cell strainer and stored at −80° C. The resultant was used as a SPT2-expressing membrane fraction. The protein concentration was determined using CBB Protein Assay with bovine serum albumin used as standards.
5 μL of each test compound was mixed with 10 μL of the 100 μg/mL SPT2-expressing membrane fraction using an assay buffer (100 mM Hepes (pH 8.0) containing 2.5 mM EDTA, 5 mM DTT and 0.01% fatty acid-free bovine serum albumin), and the mixture was left standing at room temperature for 60 minutes. Subsequently, 5 μL of a substrate solution containing 2 mM L-serine and 20 μM palmitoyl CoA was added thereto, and an enzyme reaction was carried out in a 384-well plate using 20 μL in total of the reaction system. After reaction at room temperature for 15 minutes, the reaction was terminated by the addition of 20 μL of a 2% aqueous formic acid solution. Subsequently, 40 μL of acetonitrile containing 600 nM C17-sphinganine (Avanti Polar Lipids, Inc., Alabaster, Ala., U.S.) was added thereto as an internal standard. The reaction sample was subjected to on-line solid-layer extraction using RapidFire 300 (Agilent Technologies Inc., Santa Clara, Calif., U.S.). […] Mass chromatograms were obtained using Analyst software (version 1.5.0, AB SCIEX). Their mass chromatogram areas were respectively calculated, and the rate of inhibition (%) by the test compound was calculated using an area ratio (the value of the reaction product was divided by the value of the internal standard).

[2] = test system: lung adenocarcinoma cell line HCC4006; assay: HCC4006 cell growth inhibition test (Test Example 2); assay type: cell-based; conditions: Homo sapiens, 120 h; 1 μM test compound; HCC4006 cells, culture for 5 days, CellTiter-Glo; read-out: Rate of inhibition (%) at 1 μM
Experimental: A lung adenocarcinoma cell line HCC4006 (ATCC) was cultured using an RPMI-1640 medium (Wako Pure Chemical Industries, Ltd.) containing 10% fetal bovine serum and penicillin/streptomycin. 250 cells per well were inoculated into 40 μL of a medium in a 384-well culture plate. On the next day, 10 μL of each test compound was added to the cells. After culture for 5 days, the medium was discarded, and 30 μL of CellTiter-Glo Luminescent Cell Viability Assay solution (Promega Corp., Fitchburg, Wis., U.S.) was added to each well. Light emission signals were measured using EnVision (PerkinElmer, Inc., Waltham, Mass., U.S.).
The rate of inhibition (%) by the test compound was calculated according to the following expression: Rate of inhibition (%)=(1−(Count of the test compound−Blank)/(Control−Blank))×100
In the above expression, a count under compound non-addition conditions was indicated as a control, and a count under cell-free conditions was indicated as a blank.

| Structure (SMILES) | inhibition at 1 µM [1] | inhibition at 1 µM [2] |
| --- | --- | --- |
| Cc1cc(C(=O)N2CC[C@@H](NC(=O)c3ncccc3C(F)(F)F)[C@@H](c3ccccc3)C2)cc2nccnc12 [Example 74B, N-((3S,4R)-1-((8-Methylquinoxalin-6-yl)carbonyl)-3-phenylpiperidin-4-yl)-3-(trifluoromethyl)pyridine-2-carboxamide] | 100% | 45% |
| COc1cc(C(=O)N2CCC(NC(=O)c3ccccc3Cl)c3c2cnn3C)cnc1OC (centres unmarked) [Example 80A, 2-chloro-N-(4-((5,6-dimethoxypyridin-3-yl)carbonyl)-1-methyl-4,5,6,7-tetrahydro-1H-pyrazolo[4,3-b]pyridin-7-yl)benzamide] | 99% | 44% |
| COc1ncc(C(=O)N2CCC(NC(=O)c3ccccc3Cl)c3c2cnn3C)cc1Cl (centres unmarked) [Example 84A, 2-chloro-N-(4-((5-chloro-6-methoxypyridin-3-yl)carbonyl)-1-methyl-4,5,6,7-tetrahydro-1H-pyrazolo[4,3-b]pyridin-7-yl)benzamide] | 98% | 32% |
| COc1ncc(C(=O)N2CCC(NC(=O)c3ccccc3C(F)(F)F)c3c2cnn3C)cc1Cl (centres unmarked) [Example 85A, N-(4-((5-chloro-6-methoxypyridin-3-yl)carbonyl)-1-methyl-4,5,6,7-tetrahydro-1H-pyrazolo[4,3-b]pyridin-7-yl)-2-(trifluoromethyl)benzamide] | 99% | 39% |
| Cn1nc(C(F)(F)F)cc1C(=O)N[C@@H]1CCN(C(=O)c2cc(Cl)c3nccnc3c2)C[C@@H]1c1ccc(F)cc1 [Example 96B, N-((3S,4R)-1-((8-chloroquinoxalin-6-yl)carbonyl)-3-(4-fluorophenyl)piperidin-4-yl)-1-methyl-3-(trifluoromethyl)-1H-pyrazole-5-carboxamide] | 102% | 49% |
| COc1ccc(C(=O)N2CCC(NC(=O)c3ncccc3C(F)(F)F)c3c2cnn3C)cc1OC (centres unmarked) [Example 100A, N-(4-(3,4-dimethoxybenzoyl)-1-methyl-4,5,6,7-tetrahydro-1H-pyrazolo[4,3-b]pyridin-7-yl)-3-(trifluoromethyl)pyridine-2-carboxamide] | 97% | 39% |
| CS(=O)(=O)c1ccc(C(=O)N2CC[C@@H](NC(=O)c3ccccc3OC(F)(F)F)[C@@H](c3ccccc3)C2)cc1Cl [Example 102B, N-((3S,4R)-1-(3-chloro-4-(methylsulfonyl)benzoyl)-3-phenylpiperidin-4-yl)-2-(trifluoromethoxy)benzamide] | 100% | 46% |
| Cn1cnc2ccc(C(=O)N3CC[C@@H](NC(=O)c4ccccc4OC(F)(F)F)[C@@H](c4ccccc4)C3)cc21 [Example 104B, N-((3S,4R)-1-((1-methyl-1H-benzimidazol-6-yl)carbonyl)-3-phenylpiperidin-4-yl)-2-(trifluoromethoxy)benzamide] | 101% | 53% |

Now from value to compound, other results behind:

| inhibition at 1 µM [1] | Structure (SMILES) | inhibition at 1 µM [2] |
| --- | --- | --- |
| 101% | COc1ncc(C(=O)N2CCC(NC(=O)c3ccc(Cl)cc3C(F)(F)F)c3c2cnn3CC(F)F)cc1Cl (centres unmarked) [Example 126A, 4-Chloro-N-(4-((5-chloro-6-methoxypyridin-3-yl)carbonyl)-1-(2,2-difluoroethyl)-4,5,6,7-tetrahydro-1H-pyrazolo[4,3-b]pyridin-7-yl)-2-(trifluoromethyl)benzamide] | 45% |
| 98% | Cn1ncc(C(=O)N[C@@H]2CCN(C(=O)c3ccc4nccnc4c3)C[C@@H]2c2ccccc2)c1Cl [Example 132B, 5-chloro-1-methyl-N-((3S,4R)-3-phenyl-1-(quinoxalin-6-ylcarbonyl)piperidin-4-yl)-1H-pyrazole-4-carboxamide] | 45% |
| 101% | COc1cc(C(=O)N2CCC(NC(=O)c3ccccc3OC(F)(F)F)c3c2cnn3C)cnc1OC (centres unmarked) [Example 133A, N-(4-((5,6-Dimethoxypyridin-3-yl)carbonyl)-1-methyl-4,5,6,7-tetrahydro-1H-pyrazolo[4,3-b]pyridin-7-yl)-2-(trifluoromethoxy)benzamide] | 50% |
| 100% | COc1cc(C(=O)N2CC[C@@H](NC(=O)c3cnccc3C(F)(F)F)[C@@H](c3ccccc3)C2)cnc1OC [Example 139B, N-((3S,4R)-1-((5,6-dimethoxypyridin-3-yl)carbonyl)-3-phenylpiperidin-4-yl)-4-(trifluoromethyl)nicotinamide] | 52% |
| 101% | COc1cc(C(=O)N2CC[C@@H](NC(=O)c3cccnc3C(F)(F)F)[C@@H](c3ccccc3)C2)cnc1OC [Example 140B, N-((3S,4R)-1-((5,6-dimethoxypyridin-3-yl)carbonyl)-3-phenylpiperidin-4-yl)-2-(trifluoromethyl)nicotinamide] | 49% |
| 101% | COc1cc(C(=O)N2CC[C@@H](NC(=O)c3ccccc3S(C)(=O)=O)[C@@H](c3ccccc3)C2)cnc1OC [Example 141B, N-((3S,4R)-1-((5,6-dimethoxypyridin-3-yl)carbonyl)-3-phenylpiperidin-4-yl)-2-(methylsulfonyl)benzamide] | 52% |
| 101% | COc1cc(C(=O)N2CC[C@@H](NC(=O)c3cnn(C)c3Cl)[C@@H](c3ccccc3)C2)cnc1OC [Example 150B, 5-chloro-N-((3S,4R)-1-((5,6-dimethoxypyridin-3-yl)carbonyl)-3-phenylpiperidin-4-yl)-1-methyl-1H-pyrazole-4-carboxamide] | 47% |
| 99% | COc1cc(C(=O)N2CC[C@@H](NC(=O)c3cc(C)nn3C)[C@@H](c3ccccc3)C2)cnc1OC [Example 151B, N-((3S,4R)-1-((5,6-dimethoxypyridin-3-yl)carbonyl)-3-phenylpiperidin-4-yl)-1,3-dimethyl-1H-pyrazole-5-carboxamide] | 51% |
